Reference: a melting point compilation (Tetko et al.; mined from patent text by program, amines drawn as free bases though some values may be those of a salt)

SMILES	melting point [°C]
O=[N+]([O-])c1ccc(OC(c2ccc(F)cc2)(c2ccc(F)cc2)c2nccs2)cc1C(F)(F)F	133 to 134
COc1cc2c(c3c1OC(C)(C)C3)C(c1ccccc1)=NC(C)(CN1C(=O)c3ccccc3C1=O)C2 (stereo unspecified)	121 to 125
CCCCCCC(C)(C)c1cc(OCc2ccccc2)c2c(c1)OC(C)(C)CC2=O	52 to 52.5
CNC(=O)c1ccc(N2CCNCC2)c(Cl)c1	176 to 189
COP(=S)(OC)Oc1cc(-c2ccccc2)sc1C#N	95
CC[C@H](C)[C@H](NC(=O)O[C@@H](CC(C)C)C(=O)O)C(=O)NC(C)C	179 to 180
C=CC(=O)NC(C)(C)C(=O)NCC(OC)OC	80 to 82
O=c1[nH]c(=S)n2c3c1cnn3C(c1ccccc1)=CC2	289 to 291
CN(N=Cc1ccc([N+](=O)[O-])cc1)C1=NOCc2ccc(Cl)cc21	251
CNCC1=NN=C(c2ccc([N+](=O)[O-])cc2)c2cc3c(cc2C1)OCO3	110 to 112
CC(=Cc1c(Cl)cccc1Cl)[N+](=O)[O-]	49 to 50
O=C(O)CCC(=O)N[C@H]1C[C@H](C(=O)O)Nc2cc(Cl)cc(Cl)c21 (relative stereo)	221 to 223
C=CNC(=S)n1nc(Oc2ncc(C(F)(F)F)cc2Cl)cc1C	90 to 92
Cc1c2n(c3ccccc13)C(=O)C(Cc1c[nH]cn1)CC2 (stereo unspecified)	156 to 157
O=C(O)C(CBr)(CBr)COCC(CBr)(CBr)C(=O)O	189 to 193
ON=C1C2CCN(CC2)C1CN1CCCC1 (stereo unspecified)	194 to 195

SMILES	melting point [°C]
COc1cc([N+](=O)[O-])ccc1-c1ccccc1	71
O=C(CCC(F)([N+](=O)[O-])[N+](=O)[O-])NNC(=O)C(F)(F)C(F)(F)C(F)(F)F	143 to 144
NS(=O)(=O)c1c(CF)nsc1OCC(F)(F)F	70 to 73
CC(C#N)Oc1ccc(Oc2ccc(C(F)(F)F)cc2)cc1 (stereo unspecified)	53 to 56
O=C(O)CNC(=O)NCCCCC1CCSS1 (stereo unspecified)	95 to 96
O=S(=O)(Nc1ccc(-c2nn(S(=O)(=O)c3ccccc3)c3c2Cc2ccccc2-3)cc1)c1ccccc1	251 to 252
CCCCCCCCCCC/C=C\c1c[nH]c(C(=O)O)c1	157 to 158
O=C(c1ccc(F)cc1)c1ccc([N+](=O)[O-])cc1Cl	83 to 84
Oc1cc(F)ccc1Oc1ccc(-c2ccco2)cc1O	102 to 104
Cc1cc(C)cc(-c2nc(NC(=O)c3ccncc3)sc2-c2ccncc2)c1	302 to 304
Nc1cc(-n2nc3ccc(Cl)cn3c2=O)c(F)cc1Cl	247 to 250
CNC(=O)Nc1ccc(F)cc1Cl	174 to 178
CCC(=O)c1ccc(=O)[nH]c1C	173 to 175
COc1ccc2c(c1)C(C)(C)C(CO)O2 (stereo unspecified)	65 to 67
Cc1cc(C)c2c(n1)N(CCN(C(C)C)C(C)C)C(=O)N(C)C2	97 to 99

Continued, values first:

melting point [°C]	SMILES
129 to 130	COC(=O)C(Cc1c[nH]c2ccccc12)NC(=S)c1ccc2c(c1)OCO2 (stereo unspecified)
108 to 109	O=C(O)C(=O)c1ccc(OCCOc2cccc(F)c2)cc1
95 to 97	COC(C)Cc1ccc(OCCNc2ncnc3ccccc23)c(C)c1 (stereo unspecified)
97	CC(C)[C@@H](C(=O)N1C(=O)O[C@@H](c2ccccc2)[C@H]1C)[C@@H](O)[C@@H]1OC(C)(C)N(C(=O)OC(C)(C)C)[C@H]1CC1CCCCC1
109 to 113	COc1cc(C=NOCc2ccccc2)c([N+](=O)[O-])cc1OC
151 to 153	Cc1ccccc1-n1cnc(OC(C)C(=O)O)n1 (stereo unspecified)
193 to 196	CC(C)c1ccccc1N1CCS/C1=N/N=C\c1ccc(-c2ncn(-c3ccc(OC(F)(F)F)cc3)n2)cc1
176 to 178	O=C1CCC(O)=C1Cc1cccc(CCNS(=O)(=O)c2ccc(Cl)cc2)c1
106 to 107	CC(=O)Nc1scc(C)c1C(=O)c1ccccc1
156 to 158	C=C(C)c1cccc2c1nc(-c1c(F)cccc1F)n2Cc1c(F)cccc1F
151 to 153	CCOC(=O)c1cnc2c(SC(=O)N3CCN(c4ccccc4OC)CC3)cccn2c1=O
157 to 159	Cc1cc(C(=O)OC2CC3C(=O)NC4(C(=O)NS(=O)(=O)C5CC5)CC4C=CCCCCCC(NC(=O)OC(C)(C)C)C(=O)N3C2)no1 (stereo unspecified)
169 to 170	NC(=O)CNC(=O)c1cccc(-c2cccc3cc(Cc4cc(F)cc(C(F)(F)F)c4)sc23)c1
74 to 77	OCCOc1ccc2cc[nH]c2c1
88 to 90	Cc1ccc([N+](=O)[O-])c(Oc2cc(C(F)(F)F)nn2C)c1
> 250	COc1nc2nc(C=C3C(=O)N4C(C(=O)O)=CSC34)cn2c2c1CCC2 (stereo unspecified)
105 to 106	CNC(=O)/C(=N/OC)c1ccccc1COc1ncc(Cl)cc1C(F)(F)F
199 to 201	CCNc1nc(N)nc2c1ncn2C1CC(N=[N+]=[N-])C(CO)O1 (stereo unspecified)
211	CCOc1ccc2c(c1)C(C)(c1ccccc1Cl)C(=O)N2S(=O)(=O)c1ccc(N)cc1OC (stereo unspecified)
138 to 140	CCOCCn1c(C2CCN(CCc3ccc(C(C)(C)C)cc3)CC2)nc2ccccc21

melting point [°C]	SMILES
83 to 84	CCCCc1ccc(OCCN2CCN(c3cc(Cl)nnc3Cl)CC2)cc1
164 to 166	COc1ccc(C2=NN(c3ccccc3)C(c3ccc(N)cc3)C2)cc1 (stereo unspecified)
98 to 99	C=CCn1c(C)c(C)c2cnnc(OCc3ccc(Cl)cc3Cl)c21
135 to 138	CCc1nnc2c(N(CC)CC)nc3ccc(OC)cc3n12
> 250	O=C(O)C1CCc2nc3cc(Cl)ccc3c(Cl)c2C1 (stereo unspecified)
80	c1ccc(CCN2CCC(CCc3cc(-c4ccccc4)nc4ccccc34)CC2)cc1
93 to 94	CCCOc1cccc(C=C(C=O)C(C=O)=Cc2cccc(OCCC)c2)c1
65 to 67	CCCCCCCCCCOC(=O)CS(=O)(=O)Nc1c(C(C)C)cccc1C(C)C
100 to 101	CC(=O)Oc1ccc(C=C2CCCc3cc(C)cnc32)cc1OC(C)=O
109 to 112	N#Cc1cc(/C=C/C(c2cc(Cl)c(Cl)c(Cl)c2)C(F)(F)F)ccc1-n1cnc(NC(=O)C2CC2)n1 (stereo unspecified)
123	CC(=O)NCc1nc(NCCCOc2cccc(CN3CCCCC3)c2)n(C)n1
> 250	O=C1OC2(CCC(N3CCN(c4ccc(F)cc4)CC3)CC2)c2cc(F)ccc21 (stereo unspecified)
212 to 216	c1cn(CCc2ccc3c(c2)-c2[nH]nc(-c4ccsc4)c2C3)cn1
210 to 212	CCC(Nc1ncnc2[nH]cnc12)c1oc2cccc(F)c2c(=O)c1-c1ccccc1 (stereo unspecified)
247 to 248	CCOC(=O)c1nc2c(=O)[nH]c3cc(C(F)(F)F)ccc3n2c1CBr
294 to 296	CCOCCn1cc2c(C3C(=O)Nc4ccc(Cl)cc43)nc(NCc3cccnc3)nc2n1 (stereo unspecified)
88 to 90	CCON=C(C(C)=NOCc1ccccc1C(=NOC)C(=O)NC)c1ccc(OC[Si](C)(C)c2ccc(F)cc2)cc1
206 to 208	CC1NC(=O)NN=C1c1cccc(Cl)c1 (stereo unspecified)
173	Cc1nsc(-c2ccc(N3CCN(c4cccc(C(F)(F)F)c4)CC3)nn2)n1
168 to 169	Cc1ccc(C(=O)Nc2c[nH]nc2C(=O)NCCOC(C)C)cn1
